Measured values reported in patent publication US11993786B2, “Methods and compositions for generating pacemaker cells” (TAIPEI VETERANS GENERAL HOSPITAL, priority 2017, dated 2024).

Columns and labels:
[1] = system: β-adrenergic receptor; test: Sympathetic stimulation of beating rate with isoproterenol; assay type: cell-based, rat; settings: 1 μM isoproterenol
Description: (§1) Seeded cardiomyocytes in Tyrode's solution were loaded with Ca^2+ indicators (10 μM Fluo-3/AM for cardiomyocytes; Calbiochem, San Diego, CA, USA) and incubated at room temperature for 30 minutes in the dark. Fluorescence imaging was performed with a laser scanning confocal microscope (Olympus IX71, Olympus America). The fluorescence density (F) was normalized against the baseline fluorescence (F0) to determine the transient [Ca^2+]i changes, which had excluded variations in the fluorescence intensity because of different volumes of injected dye. Offline analysis was performed using Olympus IX71 and ImageJ.
Isoproterenol is a non-selective β-adrenergic receptor agonist, which is used for pharmacological sympathetic stimulation to evaluate the physiological sympathetic regulation of sinus node. In this example, the functional regulations of autonomic neurotransmitters in SF-treated cardiomyocytes were investigated using the isoproterenol treatment (1 μM).

[2] = target: T1, HCN4 (Rattus norvegicus, UniProt Q9JKA7); test: Effect of HCN4 inhibitor on spontaneous beating rate (calcium transient cycling); assay type: cell-based; settings: 3 μM ivabradine
T1 construct: endogenous in cells; host or cells: NRVMs (primary neonatal rat ventricular cardiomyocytes) on silk fibroin film or fibronectin control
T1 sequence (Q9JKA7 1-1198): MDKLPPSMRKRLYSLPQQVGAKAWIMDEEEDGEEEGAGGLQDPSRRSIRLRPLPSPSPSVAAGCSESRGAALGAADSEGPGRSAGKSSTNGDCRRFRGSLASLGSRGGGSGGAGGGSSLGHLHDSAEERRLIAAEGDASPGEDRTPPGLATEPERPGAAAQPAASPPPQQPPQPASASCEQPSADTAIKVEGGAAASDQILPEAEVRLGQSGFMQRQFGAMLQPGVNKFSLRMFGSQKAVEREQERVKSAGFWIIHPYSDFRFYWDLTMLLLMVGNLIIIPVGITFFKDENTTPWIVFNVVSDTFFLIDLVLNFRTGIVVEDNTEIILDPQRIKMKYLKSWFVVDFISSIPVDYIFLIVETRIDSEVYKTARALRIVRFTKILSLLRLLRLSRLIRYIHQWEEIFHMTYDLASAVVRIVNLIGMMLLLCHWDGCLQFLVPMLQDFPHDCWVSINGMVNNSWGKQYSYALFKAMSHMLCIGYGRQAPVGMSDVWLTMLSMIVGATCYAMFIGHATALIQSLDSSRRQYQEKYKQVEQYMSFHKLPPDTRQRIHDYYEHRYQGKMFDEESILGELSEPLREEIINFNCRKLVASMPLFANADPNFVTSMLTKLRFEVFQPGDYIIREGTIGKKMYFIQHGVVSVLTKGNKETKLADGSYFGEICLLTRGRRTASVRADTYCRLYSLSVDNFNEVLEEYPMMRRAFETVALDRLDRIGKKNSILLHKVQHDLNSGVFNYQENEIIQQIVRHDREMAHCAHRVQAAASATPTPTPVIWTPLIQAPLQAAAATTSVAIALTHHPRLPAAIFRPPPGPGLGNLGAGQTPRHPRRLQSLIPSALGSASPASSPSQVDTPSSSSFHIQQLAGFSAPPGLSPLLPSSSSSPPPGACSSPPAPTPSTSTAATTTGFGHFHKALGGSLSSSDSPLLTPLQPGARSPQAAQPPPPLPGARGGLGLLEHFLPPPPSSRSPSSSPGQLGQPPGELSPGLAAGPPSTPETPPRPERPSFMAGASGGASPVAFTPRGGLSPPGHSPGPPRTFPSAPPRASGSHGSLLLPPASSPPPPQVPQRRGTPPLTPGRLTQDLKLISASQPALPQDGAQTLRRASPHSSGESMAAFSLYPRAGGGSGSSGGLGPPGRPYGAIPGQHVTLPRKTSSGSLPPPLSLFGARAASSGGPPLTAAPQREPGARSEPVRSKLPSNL
Description: as §1
The spontaneous beating is tightly regulated by HCN4 channels in native SAN pacemakers. Therefore, in this example, cells from Example 1 were treated with 3 μM ivabradine, a selective HCN4 inhibitor, to evaluate the impact of HCN4 on the function of SF-treated cardiomyocytes.

`CC(C)NCC(O)c1ccc(O)c(O)c1` (stereo not drawn) [isoproterenol] was tested, and the beating rate ([1]; SF-treated cardiomyocytes, n=10, P=0.001 vs control) was 162.4±9.6 bpm, the “increment of beating rate without vs with isoproterenol” value ([1]; SF-treated cells, n=10, P=0.02 vs control) was 87.1±12.4 bpm and the beating rate ([1]; control cells) was 87.6±14.7 bpm. The “increment of beating rate without vs with isoproterenol” value ([1]; control cells) was 49.2±8.3 bpm.

`COc1cc2c(cc1OC)CC(=O)N(CCCN(C)C[C@H]1Cc3cc(OC)c(OC)cc31)CC2` [ivabradine] was tested, and the “suppression of beating rate (cycling rate of spontaneous calcium transient)” value ([2]; SF-treated cardiomyocytes, vs baseline, n=15, P=0.002) was 57% and the “beating rate vs baseline” value ([2]; control cells, n=32, P=0.24) was “did not differ significantly”.
